Assay: Inhibition of HIV1 gp120 binding to CD4 in human HeLa cells by cell fusion assay
Assay type: cell-based, Human immunodeficiency virus 1

SMILES | EC50 [nM] | pEC50
C=CCn1cc(C(=O)C(=O)N2CCN(C(=O)c3ccccc3)CC2)c2ccccc21 | 6760 | 5.17
O=C(C(=O)N1CCN(C(=O)c2ccccc2)CC1)c1c[nH]c2cccc(F)c12 | 2.59 | 8.59
O=C(C(=O)N1CCN(C(=O)c2ccccc2)CC1)c1c[nH]c2ccccc12 | 153 | 6.82
COc1ccc(Cl)c2[nH]cc(C(=O)C(=O)N3CCN(C(=O)c4ccccc4)CC3)c12 | 0.07 | 10.15
O=C(C(=O)N1CCN(C(=O)c2ccccc2)CC1)c1c[nH]c2cccc(Br)c12 | 4.5 | 8.35
CC(=O)Oc1ccc2[nH]cc(C(=O)C(=O)N3CCN(C(=O)c4ccccc4)CC3)c2c1 | 952 | 6.02
O=C(C(=O)N1CCN(C(=O)c2ccccc2)CC1)c1c[nH]c2c(F)c(F)c(F)c(F)c12 | 1.7 | 8.77
O=C(C(=O)N1CCN(C(=O)c2ccccc2)CC1)c1cn(Cc2ccccc2)c2ccccc12 | 13800 | 4.86
CCCCn1cc(C(=O)C(=O)N2CCN(C(=O)c3ccccc3)CC2)c2ccccc21 | 2650 | 5.58
COc1ccc2[nH]cc(C(=O)C(=O)N3CCN(C(=O)c4ccccc4)CC3)c2c1 | 21100 | 4.68
O=C(C(=O)N1CCN(C(=O)c2ccccc2)CC1)c1c[nH]c2ccc([N+](=O)[O-])cc12 | 3800 | 5.42
O=C(C(=O)N1CCN(C(=O)c2ccccc2)CC1)c1c[nH]c2c(Br)ccc(OC(F)(F)F)c12 | 42.8 | 7.37
O=C(C(=O)N1CCN(C(=O)c2ccccc2)CC1)c1c[nH]c2ccc(F)cc12 | 838 | 6.08
Cc1ccc2[nH]cc(C(=O)C(=O)N3CCN(C(=O)c4ccccc4)CC3)c2c1 | 1550 | 5.81
N#Cc1cccc2c(C(=O)C(=O)N3CCN(C(=O)c4ccccc4)CC3)c[nH]c12 | 4.9 | 8.31
O=C(C(=O)N1CCN(C(=O)c2ccccc2)CC1)c1c[nH]c2cc(F)cc(F)c12 | 0.42 | 9.38
Cc1cccc2c(C(=O)C(=O)N3CCN(C(=O)c4ccccc4)CC3)c[nH]c12 | 89.5 | 7.05
COc1ccc(OC)c2c(C(=O)C(=O)N3CCN(C(=O)c4ccccc4)CC3)c[nH]c12 | 0.23 | 9.64
O=C(C(=O)N1CCN(C(=O)c2ccccc2)CC1)c1c[nH]c2c(F)cccc12 | 7.3 | 8.14
O=C(C(=O)N1CCN(C(=O)c2ccccc2)CC1)c1c[nH]c2c(Cl)cccc12 | 4.4 | 8.36
COc1cccc2c(C(=O)C(=O)N3CCN(C(=O)c4ccccc4)CC3)c[nH]c12 | 6.6 | 8.18
O=C(C(=O)N1CCN(C(=O)c2ccccc2)CC1)c1c[nH]c2cc(F)ccc12 | 21.1 | 7.68
O=C(C(=O)N1CCN(C(=O)c2ccccc2)CC1)c1c[nH]c2c(F)ccc(Br)c12 | 8.2 | 8.09

The next lines start with the values.

EC50 [nM] | pEC50 | SMILES
0.5 | 9.3 | CCOc1cccc2c(C(=O)C(=O)N3CCN(C(=O)c4ccccc4)CC3)c[nH]c12
121000 | 3.92 | N#Cc1ccc2[nH]cc(C(=O)C(=O)N3CCN(C(=O)c4ccccc4)CC3)c2c1
150 | 6.82 | O=C(C(=O)N1CCN(C(=O)c2ccccc2)CC1)c1c[nH]c2cccc([N+](=O)[O-])c12
208 | 6.68 | O=C(C(=O)N1CCN(C(=O)c2ccccc2)CC1)c1c[nH]c2cc(Cl)ccc12
329 | 6.48 | COc1ccc2c(C(=O)C(=O)N3CCN(C(=O)c4ccccc4)CC3)c[nH]c2c1
24900 | 4.6 | CC(=O)Oc1cccc2[nH]cc(C(=O)C(=O)N3CCN(C(=O)c4ccccc4)CC3)c12
1450 | 5.84 | CCn1cc(C(=O)C(=O)N2CCN(C(=O)c3ccccc3)CC2)c2ccccc21
0.45 | 9.35 | CCOc1cccc2[nH]cc(C(=O)C(=O)N3CCN(C(=O)c4ccccc4)CC3)c12
395 | 6.4 | O=C(C(=O)N1CCN(C(=O)c2ccccc2)CC1)c1c[nH]c2ccc(Cl)cc12
1090 | 5.96 | O=C(C(=O)N1CCN(C(=O)c2ccccc2)CC1)c1c[nH]c2ccc(Br)cc12
0.13 | 9.89 | O=C(C(=O)N1CCN(C(=O)c2ccccc2)CC1)c1c[nH]c2c(Br)ccc(F)c12
23.1 | 7.64 | O=C(C(=O)N1CCN(C(=O)c2ccccc2)CC1)c1c[nH]c2cc(F)c(Br)c(F)c12
0.35 | 9.46 | O=C(C(=O)N1CCN(C(=O)c2ccccc2)CC1)c1c[nH]c2c(F)ccc(F)c12
24.2 | 7.62 | CCc1cccc2c(C(=O)C(=O)N3CCN(C(=O)c4ccccc4)CC3)c[nH]c12
0.14 | 9.85 | CCCCOc1cccc2c(C(=O)C(=O)N3CCN(C(=O)c4ccccc4)CC3)c[nH]c12
1.9 | 8.72 | N#Cc1ccc(F)c2c(C(=O)C(=O)N3CCN(C(=O)c4ccccc4)CC3)c[nH]c12
17.4 | 7.76 | O=C(C(=O)N1CCN(C(=O)c2ccccc2)CC1)c1c[nH]c2c(Br)cccc12
20100 | 4.7 | O=C(C(=O)N1CCN(C(=O)c2ccccc2)CC1)c1c[nH]c2cccc(O)c12
0.13 | 9.89 | COc1ccc(Br)c2[nH]cc(C(=O)C(=O)N3CCN(C(=O)c4ccccc4)CC3)c12
0.56 | 9.25 | Cc1ccc(F)c2c(C(=O)C(=O)N3CCN(C(=O)c4ccccc4)CC3)c[nH]c12
0.06 | 10.22 | COc1ccc(C#N)c2[nH]cc(C(=O)C(=O)N3CCN(C(=O)c4ccccc4)CC3)c12
265 | 6.58 | Cn1cc(C(=O)C(=O)N2CCN(C(=O)c3ccccc3)CC2)c2ccccc21
46500 | 4.33 | COc1cc2[nH]cc(C(=O)C(=O)N3CCN(C(=O)c4ccccc4)CC3)c2cc1OC
0.06 | 10.22 | COc1ccc(F)c2c(C(=O)C(=O)N3CCN(C(=O)c4ccccc4)CC3)c[nH]c12
73.1 | 7.14 | O=C(C(=O)N1CCN(C(=O)c2ccccc2)CC1)c1c[nH]c2c(Br)cc(F)cc12
500 | 6.3 | O=C(C(=O)N1CCN(C(=O)c2ccccc2)CC1)c1c[nH]c2cc(Cl)c(Cl)cc12
0.71 | 9.15 | O=C(C(=O)N1CCN(C(=O)c2ccccc2)CC1)c1c[nH]c2c(OCC(F)(F)F)ccc(F)c12
4.3 | 8.37 | O=C(C(=O)N1CCN(C(=O)c2ccccc2)CC1)c1c[nH]c2cccc(Cl)c12
0.52 | 9.28 | COc1cccc2[nH]cc(C(=O)C(=O)N3CCN(C(=O)c4ccccc4)CC3)c12

— ChEMBL document CHEMBL1157860, “CoMFA and CoMSIA studies on HIV-1 attachment inhibitors” (Eur J Med Chem, 2010)
